Experimental data as given in patent US8119638B2, “Compositions and uses of ET743 for treating cancer” (Pharma Mar, S.A., priority 2007, dated 2012).
“Also recorded” adds a separate entry of the source. Where two headings read alike, the source gives them in different places.

Columns and labels:
[1] = tested on: advanced/metastatic soft tissue sarcoma (STS) and gastrointestinal stromal tumor (GIST); assay: Example 1: trials with 24 h iv continuous infusion every 3 or 4 weeks in STS and GIST patients; format: in vivo, human; set-up: tolerability of treatment / safety/toxicities observed: dose or concentration left out as unconfirmed; details: for evaluable patients with stable disease or minor responses: after 2 cycles of therapy
sc B 16 tumor = sc B 16 tumor model in male rats, dexamethasone pre-treatment plus ET743; details: Day 14, q2dx5, iv; for Vol. (tumor volume): preliminary results
Protocol: The sc B 16 tumor model in male rats was used to compare dexamethasone pre-treated (3 mg/kg total dose; −15 min.), ET743 (90 μg/kg TD) animals to ET alone on a q2dx5, iv, schedule.

[2] = tested on: advanced and/or metastatic cancers refractory to previous treatments; details: cited from earlier work
[3] = tested on: xenografts of breast cancer, non-small cell lung, melanoma and ovarian cancer; details: cited from earlier work
[4] = tested on: advanced/metastatic soft tissue sarcoma; assay: Example 3: trial with 24 h iv continuous infusion every 3 weeks in pretreated sarcoma patients; format: in vivo, human
Protocol: Data was analyzed from a trial with 24 h iv continues infusion of ET 743 every 3 weeks on 20 pretreated advanced/metastatic soft tissue sarcoma patients, with all except two patients being treated at a dose level of 1500 μg/m^2
35 Soft tissue sarcoma (STS)
22 patients had bulky disease at study entry, with 56% of disease progression under prior regime
age 16 to 71 years (median 45 yrs)
performance status 0 (0-2) (ECOG criteria)
[…] number of prior chemotherapy treatments 2 (1-7)
Most patients had received as prior chemotherapy treatments Anthracyclines and alkylators

[5] = for recommended dose level (RD): patients
From the text: The method consists of administration of drug by intravenous infusion over a period of 72 hrs or less at the recommended dose level (RD) with or without combination with other therapeutic agents.
The Recommended Dose (RD) is the highest dose which can be safely administered to a patient producing tolerable, manageable and reversible toxicity according to the Common Toxicity Criteria established by the National Cancer Institute (USA), with no more than 2 out of 6 patients presenting any dose limiting toxicities (DLT). Guidelines for cancer therapy frequently call for administration of chemotherapeutic agents at the highest safe dose at which toxicity is manageable in order to achieve maximum efficacy (DeVita, V. T. Jr., Hellman, S, and Rosenberg, S. A., Cancer: Principles and Practice of Oncology, 3rd ed., 1989, Lipincott, Philadelphia).

[6] = tested on: advanced and/or metastatic cancers refractory to previous treatments; assay: Clinical trials using the method of the invention: plasma levels and objective responses; format: in vivo, human
Protocol: The administration is performed in cycles, in the preferred application method, an intravenous infusion of ET734 is given to the patients the first week of each cycle, the patients are allowed to recover for the remainder of the cycle. The preferred duration of each cycle is of either 3 or 4 weeks; multiple cycles can be given as needed. The drug may also be administered each of the first days of each cycle. Dose delays and/or dose reductions and schedule adjustments are performed as needed depending on individual patient tolerance of treatments, in particular does reductions are recommended for patients with higher than normal serum levels of liver transaminases or alkaline phosphatase, or bilirubin.
Definitions for patient responses are adopted from WHO Common Toxicity Criteria and the responses determined following standard medical practice in the field.

[7] = tested on: advanced/metastatic breast cancer; assay: Example 2: trial with 24 h iv continuous infusion every 3 weeks in pretreated breast cancer patients; format: in vivo, human
Protocol: Data was analyzed from a trial with 24 h iv continues infusion of ET 743 every 3 weeks on 20 pretreated advanced/metastatic breast cancer patients, at a dose level of 1500 μg/m^2.
all presenting measurable disease and progressing at study entry age 33 to 64 years (median 50 yrs)
performance status 0-1 (ECOG criteria)
[…] number of involved organs: 2 (range 1-6)

[8] = tested on: advanced/metastatic soft tissue sarcoma; assay: Example 3: trial with 24 h iv continuous infusion every 3 weeks in pretreated sarcoma patients; format: in vivo, human; details: 34 evaluable patients
[9] = 24 h iv continuous infusion every 3 or 4 weeks
[10] = 56 cycles administered, 1500 μg/m^2 24 h infusion every 3 weeks

In the case of C[C@@H]1C[C@H]2[C@@H]3CCC4=CC(=O)C=C[C@]4(C)[C@@]3(F)[C@@H](O)C[C@]2(C)[C@@]1(O)C(=O)CO [DEX, dexamethasone], the nausea ([1]; dexamethasone as a prophylactic anti emetic with ET 743 24 h infusion) is reported as “essentially eliminated”, the “BW (body weight)” value (sc B 16 tumor) is reported as 217 grams and the “Vol. (tumor volume)” value (sc B 16 tumor) is reported as 17,252 mm^3.
For COc1cc2c(cc1O)CCN[C@]21CS[C@@H]2c3c(OC(C)=O)c(C)c4c(c3[C@H](COC1=O)N1[C@@H]2[C@H]2c3c(cc(C)c(OC)c3O)C[C@@H]([C@@H]1O)N2C)OCO4 [ET743, ecteinascidin 743], the “patient response (case reported in June 98)” value ([2]; breast cancer, dose level of 1800 microgram m2) is given as “breast cancer response”, the “patient response (previously reported case)” value ([2]; melanoma patient, 1 hr infusion) is given as “response in a melanoma patient” and the “action in animal models” value [3] is given as “promising action”. The “Acute, reversible transaminitis, grade 3 or 4 toxicities reported per cycle” value ([4]; 137 cycles administered) was 44%, the “Asthenia (grade 2/3), number reported per cycle” value ([4]; 137 cycles administered) was 13 and the “Asthenia (grade 2/3), reported per cycle (percent)” value ([4]; 137 cycles administered) was 23%. For the same molecule, the “Thrombocytopenia, grade 3 or 4 toxicities reported per cycle” value ([4]; 137 cycles administered) was 5%, the “febrile neutropenia, grade 3 or 4 toxicities reported per cycle” value ([4]; 137 cycles administered) was 6.5% and the “Neutropenia, grade 3 or 4 toxicities reported per cycle” value ([4]; 137 cycles administered, 1500 μg/m^2 24 h infusion every 3 weeks) was 34%. For the same molecule, the “responses in osteo sarcomas” value ([4]; osteo sarcoma patients) was 2 out of 3, the safety/toxicities observed [1, 9] was “Myelosuppression; also recorded: Temporary/asymptomatic transaminitis; also recorded: Fatigue” and the tolerability of treatment [1, 9] was “very good”. For the same molecule, the “evaluable patients with stable disease or minor responses” value ([1]; STS patients with prior chemotherapy treatment) was 4 out of 12, the “evaluable patients with stable disease or minor responses” value ([1]; STS patients without any prior chemotherapy treatment) was 6 out of 10 and the activity by histology ([1]; liposarcoma, leiomyo sarcoma, and synovial sarcoma) was “preliminary evidence of activity”. The “recommended dose level (RD)” value ([5]; 3 hr intravenous infusions) was 1650 microgram per m2 body surface area, the “recommended dose level (RD)” value ([5]; 3 hr intravenous infusions, listed as ET-743) was 1650 microgram per m2 body surface and the “recommended dose level (RD)” value ([5]; 24 hr intravenous infusions) was 1500 microgram per m2 of body surface area. For the same molecule, the “dose limiting toxicities (DLTs)” value ([5]; human, in vivo) was “myelosuppression and malaise”, the “doses with too large a fraction of patients presenting DLT, too toxic for safe administration” value ([5]; human, in vivo) was no less than 1800 microgram per m2 and the “patients presenting severe dose limiting toxic responses” value ([5]; human, in vivo) was 2 out of 4. The “therapeutic window / toxicity” value ([5]; human, in vivo) was “positive therapeutic window with manageable toxicity”, the “RD for this schedule” value ([5]; intravenous infusion over 5 consecutive days, 24 hr daily) was 1625 microgram per m2 of body surface area and the “RD for this schedule” value ([5]; intravenous infusion over 72 hr) was 1050 microgram per m2 of body surface area. For the same molecule, the “Vol. (tumor volume)” value (sc B 16 tumor) was 15,243 mm^3, the objective responses ([6]; advanced and/or metastatic cancers refractory to previous treatments: soft tissue, bone and gastrointestinal stromal sarcoma, breast cancer and melanoma) was “Objective responses were obtained” and the clinical marker response ([6]; ovarian cancer) was “positive clinical marker response”. For the same molecule, the plasma levels ([6]; patients at RD) was “appropriate plasma levels were achieved”, the activity ([6]; variety of suboptimal schedules, advanced ocular melanoma and mesothelioma) was “Evidence of activity” and the “patients achieving disease stabilization” value ([7]; 16 evaluable patients) was “Six”. The “partial responses (number of patients)” value ([7]; 16 evaluable patients, pleuropulmonary and thoracic skin involvement, no primary resistance to either pretreatment drug) was “Two”, the “Asthenia (grade 2/3), number reported per cycle” value [7, 10] was 13 and the “Asthenia (grade 2/3), reported per cycle (percent)” value [7, 10] was 23%. The “Neutropenia, grade 3 or 4 toxicities reported per cycle (percent)” value [7, 10] was 50%, the “Neutropenia, number of grade 3 or 4 toxicities reported per cycle” value [7, 10] was 25 and the “Reversible transaminitis, grade 3 or 4 toxicities reported per cycle (percent)” value [7, 10] was 60%. For the same molecule, the “Reversible transaminitis, number of grade 3 or 4 toxicities reported per cycle” value [7, 10] was 34, the “Thrombocytopenia, grade 3 or 4 toxicities reported per cycle (percent)” value [7, 10] was 2% and the “Thrombocytopenia, number of grade 3 or 4 toxicities reported per cycle” value [7, 10] was 4. For the same molecule, the “patients with sustained decrease in CA 15-3” value ([7]; among the stabilized patients) was “two”, the “disease stabilizations (number)” value [8] was 11 and the “duration of most disease stabilizations” value [8] was no less than 3 months. For the same molecule, the “minor responses (number)” value [8] was 3, the “minor responses which became post surgical complete response” value [8] was “one” and the “partial responses (number)” value [8] was 4. For the same molecule, the “partial responses (percent)” value [8] was 11.7% and the “partial responses which became post surgical complete response” value [8] was “two”.
